# Test results: PMC4448990 (Pharmacology Research & Perspectives, 2015)
# Experiments:
# [1] = tested on: GABA, chloride, TBOB site; test: in vitro selectivity profile; type: binding; conditions: eslicarbazepine 400 μmol/L
# Adenosine, A2 = test: in vitro selectivity profile; type: binding; conditions: eslicarbazepine 400 μmol/L
# Serotonin, 5HT4 = test: in vitro selectivity profile; type: binding; conditions: eslicarbazepine 400 μmol/L
# Opioid, Mu (h) = Opioid, Mu (h) (Homo sapiens, UniProt P35372); test: in vitro selectivity profile; type: binding
# Serotonin, 5HT1B = test: in vitro selectivity profile; type: binding; conditions: eslicarbazepine 400 μmol/L
# human GRIA1 receptor = human GRIA1 receptor (Homo sapiens, UniProt P42261); test: AMPA-receptor-mediated currents in CHO cells; type: cell-based; conditions: CHO cells, human GRIA1
# Sequence of human GRIA1 receptor (P42261 19-906): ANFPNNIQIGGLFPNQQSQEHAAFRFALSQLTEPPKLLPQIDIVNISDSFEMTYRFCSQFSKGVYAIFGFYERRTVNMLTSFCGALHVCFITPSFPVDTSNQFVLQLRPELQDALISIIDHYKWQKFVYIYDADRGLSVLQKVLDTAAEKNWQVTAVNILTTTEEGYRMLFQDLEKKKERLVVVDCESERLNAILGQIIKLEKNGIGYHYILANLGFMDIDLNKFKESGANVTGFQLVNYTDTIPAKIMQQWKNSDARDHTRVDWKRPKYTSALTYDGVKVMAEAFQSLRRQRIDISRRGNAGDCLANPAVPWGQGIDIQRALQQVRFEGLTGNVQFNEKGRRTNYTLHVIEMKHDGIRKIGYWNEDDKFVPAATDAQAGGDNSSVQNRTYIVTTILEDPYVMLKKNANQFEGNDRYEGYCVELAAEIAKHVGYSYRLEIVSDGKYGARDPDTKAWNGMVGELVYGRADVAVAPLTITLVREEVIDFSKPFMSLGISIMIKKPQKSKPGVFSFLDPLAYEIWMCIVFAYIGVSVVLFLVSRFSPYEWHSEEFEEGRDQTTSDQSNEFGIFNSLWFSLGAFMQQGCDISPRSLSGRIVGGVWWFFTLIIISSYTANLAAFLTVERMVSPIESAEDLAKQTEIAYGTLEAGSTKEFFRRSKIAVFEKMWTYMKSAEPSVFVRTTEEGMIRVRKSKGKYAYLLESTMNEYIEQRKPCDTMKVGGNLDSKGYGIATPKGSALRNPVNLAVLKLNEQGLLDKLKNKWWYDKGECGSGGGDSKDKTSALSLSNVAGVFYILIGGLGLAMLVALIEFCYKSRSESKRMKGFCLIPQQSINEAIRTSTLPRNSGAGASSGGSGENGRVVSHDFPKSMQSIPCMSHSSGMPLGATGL
# [2] = tested on: Nitric oxide, NOS (neuronal-binding); test: in vitro selectivity profile; conditions: eslicarbazepine 400 μmol/L
# [3] = molecular target: human α5β2γ2 GABAA receptors (Homo sapiens, UniProt P18507+P31644+P47870); test: submaximal GABA currents in Ltk cells; type: cell-based
# Sequence of human α5β2γ2 GABAA receptors (P31644 32-462): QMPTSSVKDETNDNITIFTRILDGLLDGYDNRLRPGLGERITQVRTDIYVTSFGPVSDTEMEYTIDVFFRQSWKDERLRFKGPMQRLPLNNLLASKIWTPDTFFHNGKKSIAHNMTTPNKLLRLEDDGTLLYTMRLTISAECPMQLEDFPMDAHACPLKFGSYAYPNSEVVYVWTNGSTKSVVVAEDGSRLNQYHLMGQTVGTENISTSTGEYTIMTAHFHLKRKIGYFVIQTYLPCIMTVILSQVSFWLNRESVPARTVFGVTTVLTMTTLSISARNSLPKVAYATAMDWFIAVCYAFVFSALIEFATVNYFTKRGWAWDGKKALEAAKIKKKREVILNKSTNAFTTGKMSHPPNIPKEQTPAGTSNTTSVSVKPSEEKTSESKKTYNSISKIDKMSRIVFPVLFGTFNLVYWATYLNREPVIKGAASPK
# Sequence of human α5β2γ2 GABAA receptors (P47870 25-512 limits assumed): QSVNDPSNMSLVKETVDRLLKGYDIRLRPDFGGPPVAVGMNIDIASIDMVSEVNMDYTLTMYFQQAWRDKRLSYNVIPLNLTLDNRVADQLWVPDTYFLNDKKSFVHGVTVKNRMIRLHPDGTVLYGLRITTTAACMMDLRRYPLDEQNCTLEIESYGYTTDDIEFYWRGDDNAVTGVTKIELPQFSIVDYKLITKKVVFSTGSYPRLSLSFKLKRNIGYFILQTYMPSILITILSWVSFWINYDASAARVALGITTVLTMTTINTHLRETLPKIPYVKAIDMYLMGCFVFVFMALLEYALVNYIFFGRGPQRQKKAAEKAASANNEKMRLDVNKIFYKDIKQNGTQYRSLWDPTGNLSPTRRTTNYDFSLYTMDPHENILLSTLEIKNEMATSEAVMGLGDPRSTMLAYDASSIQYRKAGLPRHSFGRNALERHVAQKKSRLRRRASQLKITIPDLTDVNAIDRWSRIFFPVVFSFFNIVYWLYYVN
# Sequence of human α5β2γ2 GABAA receptors (P18507 40-475): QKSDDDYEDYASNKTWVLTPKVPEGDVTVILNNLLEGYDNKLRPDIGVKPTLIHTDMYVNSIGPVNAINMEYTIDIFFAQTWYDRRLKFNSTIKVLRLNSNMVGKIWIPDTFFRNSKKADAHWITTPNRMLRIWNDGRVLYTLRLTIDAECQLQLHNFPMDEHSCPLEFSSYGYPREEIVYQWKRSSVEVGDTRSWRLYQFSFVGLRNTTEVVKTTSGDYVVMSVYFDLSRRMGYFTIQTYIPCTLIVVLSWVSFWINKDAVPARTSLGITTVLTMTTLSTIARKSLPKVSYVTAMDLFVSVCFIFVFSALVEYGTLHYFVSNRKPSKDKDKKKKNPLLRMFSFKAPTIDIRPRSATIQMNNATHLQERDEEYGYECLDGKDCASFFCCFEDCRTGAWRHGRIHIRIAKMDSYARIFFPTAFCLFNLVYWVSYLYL
# [4] = molecular target: human GRIN1/GRIN2B NMDA receptor (Homo sapiens, UniProt Q05586+Q13224); test: submaximal NMDA-receptor-mediated currents in HEK cells; type: cell-based
# [5] = molecular target: Protease, caspase, CASP-3 (h) (Homo sapiens, UniProt P42574); test: in vitro selectivity profile; type: biochemical
# [6] = molecular target: Kinase, protein, GSK3b (h) (Homo sapiens, UniProt P49841); test: in vitro selectivity profile; type: biochemical
# Sequence of Kinase, protein, GSK3b (h) (P49841 whole entry): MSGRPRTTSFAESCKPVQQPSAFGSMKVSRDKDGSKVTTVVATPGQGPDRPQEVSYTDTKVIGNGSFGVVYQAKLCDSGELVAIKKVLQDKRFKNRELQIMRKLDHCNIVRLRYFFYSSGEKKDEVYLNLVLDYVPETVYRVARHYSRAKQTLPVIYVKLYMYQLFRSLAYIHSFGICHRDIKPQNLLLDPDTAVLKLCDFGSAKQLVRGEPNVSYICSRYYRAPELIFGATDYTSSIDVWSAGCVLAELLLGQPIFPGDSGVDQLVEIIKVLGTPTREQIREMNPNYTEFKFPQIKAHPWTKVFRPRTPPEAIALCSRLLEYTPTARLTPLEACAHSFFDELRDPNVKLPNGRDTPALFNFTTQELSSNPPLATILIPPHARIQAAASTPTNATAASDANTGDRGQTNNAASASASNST
# [7] = tested on: Nicotinic, neuronal [a-BnTx insensitive] (h); test: in vitro selectivity profile; type: binding, human; conditions: eslicarbazepine 400 μmol/L
# Neurokinin, NK1 = test: in vitro selectivity profile; type: binding; conditions: eslicarbazepine 400 μmol/L
# [8] = tested on: Somatostatin, nonselective; test: in vitro selectivity profile; type: binding; conditions: eslicarbazepine 400 μmol/L
# [9] = molecular target: Anhydrase, carbonic, isozyme II (h) (Homo sapiens, UniProt P00918); test: in vitro selectivity profile; type: biochemical
# Glutamate, AMPA site = test: in vitro selectivity profile; type: binding; conditions: eslicarbazepine 400 μmol/L
# hCav2.1 calcium channels = hCav2.1 calcium channels (Homo sapiens, UniProt O00555); test: whole-cell patch clamp, hCav2.1 in CHO cells; type: cell-based; conditions: IC50, hCav2.1 calcium peak currents, 0.3–1000 μmol/L, holding potential −80 mV
# [10] = tested on: persistent Na+ current (INaP); conditions: 300 μmol/L, ref Döser et al. [2013a], [2014], cited from earlier work
# Adrenergic, alpha2A (h) = Adrenergic, alpha2A (h) (Homo sapiens, UniProt P08913); test: in vitro selectivity profile; type: binding
# [11] = tested on: Thyrotropin-releasing hormone, TRH; test: in vitro selectivity profile; type: binding; conditions: eslicarbazepine 400 μmol/L
# [12] = tested on: Glutamate, chloride-dependent site; test: in vitro selectivity profile; type: binding; conditions: eslicarbazepine 400 μmol/L
# [13] = molecular target: human α1β2γ2 GABAA receptors (Homo sapiens, UniProt P14867+P18507+P47870); test: submaximal GABA currents in Ltk cells; type: cell-based
# Sequence of human α1β2γ2 GABAA receptors (P14867 28-456): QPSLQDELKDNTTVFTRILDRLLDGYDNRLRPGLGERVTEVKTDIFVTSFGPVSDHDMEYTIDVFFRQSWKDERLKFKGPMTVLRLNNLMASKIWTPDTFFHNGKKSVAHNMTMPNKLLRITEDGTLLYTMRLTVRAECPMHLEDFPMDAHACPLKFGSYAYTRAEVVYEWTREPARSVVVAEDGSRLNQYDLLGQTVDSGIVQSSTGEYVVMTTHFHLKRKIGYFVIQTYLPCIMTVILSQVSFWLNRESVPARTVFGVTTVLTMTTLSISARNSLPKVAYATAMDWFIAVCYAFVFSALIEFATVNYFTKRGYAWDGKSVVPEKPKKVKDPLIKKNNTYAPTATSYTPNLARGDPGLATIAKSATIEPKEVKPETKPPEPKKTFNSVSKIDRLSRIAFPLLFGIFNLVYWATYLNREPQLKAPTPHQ
# Sequence of human α1β2γ2 GABAA receptors (P47870 25-512 limits assumed): as the sequence (P47870 25-512 limits assumed) above
# Sequence of human α1β2γ2 GABAA receptors (P18507 40-475): as the sequence (P18507 40-475) above
# Muscarinic, M4 (h) = Muscarinic, M4 (h) (Homo sapiens, UniProt P08173); test: in vitro selectivity profile; type: binding
# Sequence of Muscarinic, M4 (h) (P08173 whole entry): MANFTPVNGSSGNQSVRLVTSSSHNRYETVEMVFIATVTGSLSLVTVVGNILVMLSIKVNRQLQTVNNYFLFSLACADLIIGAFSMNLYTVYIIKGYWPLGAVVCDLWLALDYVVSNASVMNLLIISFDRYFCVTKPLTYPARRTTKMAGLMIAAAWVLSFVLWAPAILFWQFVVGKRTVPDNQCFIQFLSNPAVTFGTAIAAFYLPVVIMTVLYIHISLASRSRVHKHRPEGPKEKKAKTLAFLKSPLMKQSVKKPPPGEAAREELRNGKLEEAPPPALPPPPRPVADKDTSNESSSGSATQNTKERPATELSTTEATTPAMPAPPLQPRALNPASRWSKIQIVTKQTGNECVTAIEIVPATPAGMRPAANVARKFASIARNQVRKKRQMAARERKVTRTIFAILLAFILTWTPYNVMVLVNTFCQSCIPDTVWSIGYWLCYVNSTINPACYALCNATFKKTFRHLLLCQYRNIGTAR
# [14] = tested on: Glutamate, NMDA agonist site; test: in vitro selectivity profile; type: binding; conditions: eslicarbazepine 400 μmol/L
# [15] = tested on: Glycine, strychnine-sensitive; test: in vitro selectivity profile; type: binding; conditions: eslicarbazepine 400 μmol/L
# Neuropeptide, NPY2 (h) = Neuropeptide, NPY2 (h) (Homo sapiens, UniProt P49146); test: in vitro selectivity profile; type: binding
# Dopamine transporter (h) = Dopamine transporter (h) (Homo sapiens, UniProt Q01959); test: in vitro selectivity profile; type: binding
# [16] = molecular target: Protease, caspase, CASP-1 (h) (Homo sapiens, UniProt P29466); test: in vitro selectivity profile; type: biochemical
# Sequence of Protease, caspase, CASP-1 (h) (P29466 120-297 limits assumed): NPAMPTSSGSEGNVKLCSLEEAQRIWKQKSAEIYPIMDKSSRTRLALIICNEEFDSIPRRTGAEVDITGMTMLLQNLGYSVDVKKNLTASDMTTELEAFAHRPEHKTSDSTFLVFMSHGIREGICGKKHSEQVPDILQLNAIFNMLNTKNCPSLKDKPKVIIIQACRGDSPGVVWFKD
# Sequence of Protease, caspase, CASP-1 (h) (P29466 317-404 limits assumed): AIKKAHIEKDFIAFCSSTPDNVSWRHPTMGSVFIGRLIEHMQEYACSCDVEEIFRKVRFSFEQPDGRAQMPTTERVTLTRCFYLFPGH
# GABA A, agonist site = test: in vitro selectivity profile; type: binding; conditions: eslicarbazepine 400 μmol/L
# [17] = molecular target: Kinase, protein, MAPK3 (ERK1, P44MAPK) (h) (Homo sapiens, UniProt P27361); test: in vitro selectivity profile; type: biochemical
# [18] = molecular target: Norepinephrine transporter (h) (Homo sapiens, UniProt P23975); test: in vitro selectivity profile; type: binding
# Sequence of Norepinephrine transporter (h) (P23975 whole entry): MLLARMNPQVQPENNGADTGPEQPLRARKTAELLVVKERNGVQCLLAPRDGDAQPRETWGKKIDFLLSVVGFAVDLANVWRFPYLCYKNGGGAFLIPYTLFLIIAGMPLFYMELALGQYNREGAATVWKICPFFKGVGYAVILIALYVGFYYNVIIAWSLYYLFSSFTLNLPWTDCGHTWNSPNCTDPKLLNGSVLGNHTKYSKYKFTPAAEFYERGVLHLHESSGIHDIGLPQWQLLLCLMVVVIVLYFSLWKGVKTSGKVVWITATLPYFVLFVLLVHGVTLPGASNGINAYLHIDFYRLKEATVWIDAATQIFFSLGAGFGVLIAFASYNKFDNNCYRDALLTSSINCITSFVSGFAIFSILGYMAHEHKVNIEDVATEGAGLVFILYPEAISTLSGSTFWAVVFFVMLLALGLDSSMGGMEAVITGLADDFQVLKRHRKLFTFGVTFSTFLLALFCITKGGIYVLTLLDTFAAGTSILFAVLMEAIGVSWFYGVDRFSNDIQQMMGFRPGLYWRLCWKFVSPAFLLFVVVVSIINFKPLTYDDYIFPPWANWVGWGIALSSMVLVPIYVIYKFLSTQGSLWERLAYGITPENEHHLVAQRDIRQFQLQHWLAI
# Serotonin, 5HT5A (h) = Serotonin, 5HT5A (h) (Homo sapiens, UniProt P47898); test: in vitro selectivity profile; type: binding
# Sequence of Serotonin, 5HT5A (h) (P47898 whole entry): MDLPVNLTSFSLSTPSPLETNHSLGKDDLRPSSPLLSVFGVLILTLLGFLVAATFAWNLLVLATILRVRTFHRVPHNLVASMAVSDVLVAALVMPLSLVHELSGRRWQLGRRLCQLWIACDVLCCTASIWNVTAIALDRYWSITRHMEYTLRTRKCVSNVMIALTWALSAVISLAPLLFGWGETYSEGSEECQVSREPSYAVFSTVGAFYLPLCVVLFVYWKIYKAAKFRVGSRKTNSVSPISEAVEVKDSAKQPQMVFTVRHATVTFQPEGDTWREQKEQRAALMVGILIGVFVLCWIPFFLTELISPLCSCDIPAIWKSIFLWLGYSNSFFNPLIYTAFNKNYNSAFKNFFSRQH
# Angiotensin II, AT2 = test: in vitro selectivity profile; type: binding; conditions: eslicarbazepine 400 μmol/L
# Glutamate, mGluR1 = test: in vitro selectivity profile; type: binding; conditions: eslicarbazepine 400 μmol/L
# [19] = tested on: Glutamate, NMDA, phencyclidine site; test: in vitro selectivity profile; type: binding; conditions: eslicarbazepine 400 μmol/L
# [20] = tested on: Glutamate, NMDA, glycine (strychnine-insensitive); test: in vitro selectivity profile; type: binding; conditions: eslicarbazepine 400 μmol/L
# Galanin, nonselective = test: in vitro selectivity profile; type: binding; conditions: eslicarbazepine 400 μmol/L
# Muscarinic, M5 (h) = Muscarinic, M5 (h) (Homo sapiens, UniProt P08912); test: in vitro selectivity profile; type: binding
# [21] = plasma and brain concentrations of eslicarbazepine after ESL; type: in vivo; conditions: mouse; for concentration at 60 min: 100 mg/kg; for concentration at 15 min: Amygdala kindling
# transient Na+ channels = conditions: ref Döser et al. [2013c], [2015]; cited from earlier work
smiles,measurement,setting,value
NC(=O)N1c2ccccc2C[C@H](O)c2ccccc21 [eslicarbazepine],% inhibition,[1],38.95%
same,% inhibition,"Adenosine, A2",0.0%
same,% inhibition,"Serotonin, 5HT4",7.38%
same,inhibition at 400 µM,"Opioid, Mu (h)",0%
same,% inhibition,"Serotonin, 5HT1B",2.1%
same,"IC50, AMPA currents",human GRIA1 receptor,neither eslicarbazepine nor CBZ significantly changed AMPA currents
same,% inhibition,[2],0.0%
same,"GABA inward current stimulation, α5β2γ2, Mean ± SEM",[3]; 50 μmol/L,95.2 ± 2.2
same,"GABA inward current stimulation, α5β2γ2, Mean ± SEM",[3]; 100 μmol/L,93.9 ± 0.6
same,"GABA inward current stimulation, α5β2γ2, Mean ± SEM",[3]; 250 μmol/L,93.5 ± 1.8
same,"GABA inward current stimulation, α5β2γ2, Mean ± SEM",[3]; 500 μmol/L,89.7 ± 3.4
same,effect on submaximal α5β2γ2 GABA currents,[3]; 50–500 μmol/L,did not significantly change submaximal GABA currents
same,IC50,[4],1.23 mM
same,inhibition at 400 µM,[5],0%
same,inhibition at 400 µM,[6],4.32%
same,% inhibition,[7],23.46%
same,% inhibition,"Neurokinin, NK1",12.58%
same,% inhibition,[8],0.0%
same,inhibition at 400 µM,[9],5.93%
same,% inhibition,"Glutamate, AMPA site",0.0%
same,IC50,hCav2.1 calcium channels,7.84 mM
same,INaP in Scn1b null mice,[10]; Scn1b null mice,did not cause a paradoxical upregulation of INaP
same,maximal INaP conductance and firing rate,[10]; wild-type mice,significantly reduce maximal INaP conductance and efficiently decrease the firing rate
same,inhibition at 400 µM,"Adrenergic, alpha2A (h)",15.6%
same,% inhibition,[11],16.14%
same,% inhibition,[12],9.36%
same,"GABA inward current stimulation, α1β2γ2, Mean ± SEM",[13]; 50 μmol/L,103.3 ± 2.0
same,"GABA inward current stimulation, α1β2γ2, Mean ± SEM",[13]; 100 μmol/L,95.9 ± 1.0
same,"GABA inward current stimulation, α1β2γ2, Mean ± SEM",[13]; 250 μmol/L,97.8 ± 1.1
same,"GABA inward current stimulation, α1β2γ2, Mean ± SEM",[13]; 500 μmol/L,99.4 ± 0.8
same,effect on submaximal α1β2γ2 GABA currents,[13]; 50–500 μmol/L,did not significantly change submaximal GABA currents
same,inhibition at 400 µM,"Muscarinic, M4 (h)",6.08%
same,% inhibition,[14],0.0%
same,% inhibition,[15],25.95%
same,inhibition at 400 µM,"Neuropeptide, NPY2 (h)",8.43%
same,inhibition at 400 µM,Dopamine transporter (h),2.85%
same,inhibition at 400 µM,[16],0%
same,% inhibition,"GABA A, agonist site",0.0%
same,inhibition at 400 µM,[17],2.05%
same,inhibition at 400 µM,[18],9.33%
same,inhibition at 400 µM,"Serotonin, 5HT5A (h)",11.9%
same,% inhibition,"Angiotensin II, AT2",11.32%
same,% inhibition,"Glutamate, mGluR1",1.82%
same,% inhibition,[19],0.0%
same,% inhibition,[20],13.21%
same,% inhibition,"Galanin, nonselective",6.11%
same,inhibition at 400 µM,"Muscarinic, M5 (h)",16%
same,Kp at 60 min,"[21]; NMRI, Swiss, brain and plasma, other: oral or intraperitoneal",3.4 to 5.8
same,concentration at 60 min,"[21]; NMRI, brain (lipid fraction), intraperitoneal, Brain (lipid fraction) Eslicarbazepine, Corneal kindling, ESL 100 mg/kg i.p.",564 µM
same,concentration at 15 min,"[21]; NMRI, brain (lipid fraction), intraperitoneal, 200 mg/kg, Brain (lipid fraction) Eslicarbazepine, ESL 200 mg/kg i.p.",313 µM
same,concentration at 15 min,"[21]; NMRI, brain (lipid fraction), intraperitoneal, 300 mg/kg, Brain (lipid fraction) Eslicarbazepine, ESL 300 mg/kg i.p.",489 µM
same,concentration at 60 min,"[21]; NMRI, brain (organic phase), intraperitoneal, Brain (organic phase) Eslicarbazepine, Corneal kindling, ESL 100 mg/kg i.p.",314 µM
same,concentration at 15 min,"[21]; NMRI, brain (organic phase), intraperitoneal, 200 mg/kg, Brain (organic phase) Eslicarbazepine, ESL 200 mg/kg i.p.",174 µM
same,concentration at 15 min,"[21]; NMRI, brain (organic phase), intraperitoneal, 300 mg/kg, Brain (organic phase) Eslicarbazepine, ESL 300 mg/kg i.p.",273 µM
same,concentration at 60 min,"[21]; Swiss, brain (lipid fraction), oral, Brain (lipid fraction) Eslicarbazepine, Latrunculin A-induced seizures, ESL 100 mg/kg p.o.",303 µM
same,concentration at 60 min,"[21]; Swiss, brain (organic phase), oral, Brain (organic phase) Eslicarbazepine, Latrunculin A-induced seizures, ESL 100 mg/kg p.o.",169 µM
same,neuronal firing in dissociated granule cells from human hippocampus,transient Na+ channels,significantly inhibited neuronal firing
